Structures can show the parent of a compound that is named as a salt.

What is called inhibition is the drop in the measured response relative to a control, in per cent. A high value points to a strong effect.

For the assay, the system named is TGFβ signal. Briefly: TGFβ signal inhibitory activity, (SBE)4-Luc luciferase reporter in A549 cells. In kind it is cell-based, human. The settings on record: TGFβ-1 2 ng/ml, A549 (SBE)4-Luc; for inhibition at 3 µM / inhibition at 10 µM: Homo sapiens, A549, 4 h; for TGFβ inhibition, %: 4 hr. As to the method: The TGFβ signal inhibitory activity of compounds according to the present invention was evaluated according to the method described in J. Boil. Chem., 273, 21145-21152 (1998). Specifically, a luciferase gene driving by four tandem binding sequences of Smad2/3, which are TGFβ signal transfer factors was used as a reporter gene ((SBE)4-Luc). This reporter gene was introduced into human lung cancer epithelial cells (A549) (available from ATCC) to establish a stable cell line expressing its gene. A test compound and TGFβ-1 (2 ng/ml) were added to the cells, and the mixture was cultured for 4 hr. Compounds according to the present invention synthesized in the above working examples were used as the test compound. After the culture, the luciferase activity of cells was measured by a chemiluminescence method (Steady Glo (trademark) luciferase assay system available from Promega). Likewise, the luciferase activity was measured for control cells, that is, cells which had been cultured with the addition of TGFβ only, and cells which had been cultured without the addition of TGFβ and the test compound. The TGFβ inhibition rate (%) was calculated based on the results of measurement according to the following equation: TGFβ inhibition rate (%)=(A−B)/(A−C)×100 wherein A, B and C have the following respective meanings: A: luciferase activity in the case where TGFβ1 was added and the test compound was not added (relative luciferase unit); B: luciferase activity in the case where both TGFβ1 and the test compound were added (relative luciferase unit); and C: luciferase activity in the case where neither TGFβ1 nor the test compound was added (relative luciferase unit). The test was carried out for each of a test compound concentration of 3 μM and a test compound concentration of 10 μM. For given test compounds, the test was further carried out for a test compound concentration of 1 μM.

`COc1ccc(Oc2ccnc3cc(OC)c(OC)cc23)c(C(C)=O)c1` [Compound 36, 1-{2-[(6,7-Dimethoxy-4-quinolyl)oxy]-5-methoxyphenyl}-1-ethanone] displayed an inhibition at 3 µM (test compound 3 μM) of 95%. For the setting “test compound 10 μM”, this compound yielded an inhibition at 10 µM of 100%.

For the setting “test compound 3 μM”, `COc1cc2nccc(Oc3ccccc3C(=O)c3ccccc3)c2cc1OC` [Compound 62, {2-[(6,7-Dimethoxy-4-quinolyl)oxy]-phenyl}(phenyl)-methanone] returned an inhibition at 3 µM of 43%. This compound came in with an inhibition at 10 µM (test compound 10 μM) of 85%.

For `COc1cc2nccc(Oc3ccccc3C(=O)c3ccccc3)c2cc1OC.Cl` [Compound 63, {2-[(6,7-Dimethoxy-4-quinolyl)oxy]-phenyl}(phenyl)-methanone hydrochloride], the “TGFβ inhibition, %” value runs as follows: (test compound 3 μM) 57%; (test compound 10 μM) 91%.

On to `COc1cc2nccc(Oc3ccc(Cl)cc3C(=O)c3ccccc3)c2cc1OC` [Compound 68, {5-Chloro-2-[(6,7-dimethoxy-4-quinolyl)oxy]phenyl}-(phenyl)methanone], for which the inhibition at 3 µM (test compound 3 μM) stood at 89%. This compound had an inhibition at 10 µM (test compound 10 μM) of 100%.

Consider `COc1cc2nccc(Oc3ccc(Cl)cc3C(=O)c3ccccc3)c2cc1OC.Cl` [Compound 69, {5-Chloro-2-[(6,7-dimethoxy-4-quinolyl)oxy]phenyl}-(phenyl)methanone hydrochloride], for which the “TGFβ inhibition, %” value (test compound 3 μM) is reported as 100% and the “TGFβ inhibition, %” value (test compound 10 μM) is 100%.

The compound `COc1cc2nccc(Oc3ccc(C)cc3C(=O)c3ccccc3)c2cc1OC` [Compound 71, {2-[(6,7-Dimethoxy-4-quinolyl)oxy]-5-methylphenyl}-(phenyl)methanone] showed an inhibition at 3 µM (test compound 3 μM) of 79%. For the same compound, 10 µM produced 100% inhibition (test compound 10 μM).

Take `COc1cc2nccc(Oc3ccc(C)cc3C(=O)c3ccccc3)c2cc1OC.Cl` [Compound 72, {2-[(6,7-Dimethoxy-4-quinolyl)oxy]-5-methylphenyl}-(phenyl)methanone hydrochloride]: the “TGFβ inhibition, %” value runs as follows: (test compound 3 μM) 98%; (test compound 10 μM) 100%.

Where the note is “test compound 3 μM”, `COc1cc2nccc(Oc3cc(C)c(C)cc3C(=O)c3ccccc3)c2cc1OC` [Compound 76, {2-[(6,7-Dimethoxy-4-quinolyl)oxy]-4,5-dimethylphenyl}-(phenyl)methanone hydrochloride] returned an inhibition at 3 µM of 95%. The inhibition at 10 µM (test compound 10 μM) turned out to be 100%.

Take `COc1ccc(Oc2ccnc3cc(OC)c(OC)cc23)c(C(C)=O)c1.Cl` [Compound 177, 1-[2-(6,7-Dimethoxy-quinolin-4-yloxy)-5-methoxy-phenyl]-ethanone hydrochloride]: the “TGFβ inhibition, %” value was found to be 94% (test compound 3 μM) and 100% (test compound 10 μM).

As to `COc1cc2nccc(Oc3cc(C)c(C)cc3/C(C)=N/O)c2cc1OC` [Compound 195, 1-[2-(6,7-Dimethoxy-quinolin-4-yloxy)-4,5-dimethyl-phenyl]-ethanone oxime], 10 µM produced 100% inhibition (test compound 10 μM).

In the case of `C=CCO/N=C(\C)c1cc(C)c(C)cc1Oc1ccnc2cc(OC)c(OC)cc12` [Compound 197, 1-[2-(6,7-Dimethoxy-quinolin-4-yloxy)-4,5-dimethyl-phenyl]-ethanone o-allyl-oxime], at 3 µM the inhibition (test compound 3 μM) was 40%.

`COc1cc2nccc(Oc3ccc(F)nc3I)c2cc1OC` [Compound 211, 4-(6-Fluoro-2-iodo-pyridin-3-yloxy)-6,7-dimethoxy-quinoline]: at 3 µM the inhibition (test compound 3 μM) was 87%. This compound gave an inhibition at 10 µM (test compound 10 μM) of 100%.

Under “test compound 10 μM”, `COc1cc2c(Oc3cc(C)c(C)cc3C(C)=O)ccnc2cc1OCCCN1CCOCC1` [Compound 319, 1-{2-[6-Methoxy-7-(3-morpholin-4-yl-propoxy)-quinolin-4-yloxy]-4,5-dimethyl-phenyl}-ethanone] displayed an inhibition at 10 µM of 100%.

As for `COc1cc2c(Oc3cc(C)c(C)cc3C(C)=O)ccnc2cc1OCCCN1CCOCC1.Cl.Cl` [Compound 320, 1-{2-[6-Methoxy-7-(3-morpholin-4-yl-propoxy)-quinolin-4-yloxy]-4,5-dimethyl-phenyl}-ethanone hydrochloride], the “TGFβ inhibition, %” value reads like this: (test compound 3 μM) 100%; (test compound 10 μM) 100%.

Turning to `COc1cc2c(Oc3cc4ccccc4nc3C)ccnc2cc1OCCN1CCOCC1` [Compound 365, 6-Methoxy-4-(2-methyl-quinolin-3-yloxy)-7-(2-morpholin-4-yl-ethoxy)-quinoline], the inhibition at 3 µM (test compound 3 μM) was 100%. This compound also displayed an inhibition at 10 µM (test compound 10 μM) of 100%.

As for `COc1cc2c(Oc3cc4ccccc4nc3C)ccnc2cc1OCCN1CCOCC1.Cl.Cl.Cl` [Compound 366, 6-Methoxy-4-(2-methyl-quinolin-3-yloxy)-7-(2-morpholin-4-yl-ethoxy)-quinoline hydrochloride], the “TGFβ inhibition, %” value reads like this: (test compound 3 μM) 100%; (test compound 10 μM) 100%.

The record behind these values is US7560558B2, “Compound having TGFβ inhibitory activity and medicinal composition containing the same” (Kirin Beer Kabushiki Kaisha, priority 2002, dated 2009).
